Results reported in patent publication US9290453B2 (Merck Sharp & Dohme Corp., priority 2010, dated 2016).

Target: T1, hCRTH2 (Homo sapiens, UniProt Q9Y5Y4)
T1 construct: expressed in transfected cells; host or cells: HEK (human embryonic kidney) cells expressing hCRTH2
T1 sequence (Q9Y5Y4 1-395): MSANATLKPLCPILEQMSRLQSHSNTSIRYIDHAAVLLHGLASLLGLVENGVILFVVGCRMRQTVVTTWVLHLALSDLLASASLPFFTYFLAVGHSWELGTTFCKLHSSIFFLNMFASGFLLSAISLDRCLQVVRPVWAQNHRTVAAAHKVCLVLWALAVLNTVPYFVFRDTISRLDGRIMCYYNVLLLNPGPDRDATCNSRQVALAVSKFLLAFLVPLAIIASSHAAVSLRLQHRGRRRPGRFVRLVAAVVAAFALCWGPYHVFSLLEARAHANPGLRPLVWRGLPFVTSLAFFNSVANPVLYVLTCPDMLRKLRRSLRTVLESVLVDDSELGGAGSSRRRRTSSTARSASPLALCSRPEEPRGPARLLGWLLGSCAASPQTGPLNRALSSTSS
Assay: Radioligand Binding Assay A ([3H]PGD2 filtration binding, HEK-hCRTH2 membranes)
Conditions: Table A, rated A-D
Procedure: Radioligand binding assays were performed at room temperature in 50 mM Tris-HCl pH 7.4, 1 mM EDTA containing 2 mM MnCl2 and 3.0 nM [^3H]PGD2 (New England Nuclear, Boston, Mass.) (171 Ci mmol^−1), in a final volume of 0.2 ml. Competing ligands were diluted in dimethylsulfoxide (Me2SO) that was kept constant at 1% (v/v) of the final incubation volume. The reaction was initiated by the addition of 8-20 μg of membrane protein prepared from a human embryonic kidney (HEK)-hCRTH2 cell line. Total and non-specific binding were determined in the absence and the presence of 10 μM PGD2, respectively. Under these conditions, specific binding (total minus non-specific) of the radioligand to the receptor reached equilibrium within 50 min and was stable up to 180 min. The reaction was routinely conducted for 60 min at room temperature and terminated by rapid filtration through prewetted (0.3% polyethyleneimine) 96-well printed Filtermate™ (Wallac) using a Tomtec® harvester (Hamden, Conn.). After washing with cold buffer, the filter was dried for 2 minutes in microwave, and Meltilex Scintillator sheet (Wallac) was melted on for 2 min. The radioactivity was measured with Betaplate model 1205 (Wallac).

O=C(O)CCCCc1cc2cc(C(=O)N[C@@H]3CCc4ccccc43)ccc2nc1-c1ccccc1 [Compound 1M, 6-[[(2,3-dihydro-1H-inden-1(R)-yl)amino]carbonyl]-2-phenyl-3-quinolinepentanoic acid] and O=C(O)CCCCc1cc2cc(C(=O)N[C@H]3CCc4ccccc43)ccc2nc1-c1ccccc1 [Compound 1N, 6-[[(2,3-dihydro-1H-inden-1(S)-yl)amino]carbonyl]-2-phenyl-3-quinolinepentanoic acid] fall in the same range of Ki: 2.1 to 20 nM for the first, 2.1 to 20 nM for the second.

O=C(O)CCCCc1cc2cc(C(=O)N[C@H]3CCCc4ccccc43)ccc2nc1-c1ccccc1 [Compound 1P, 2-phenyl-6-[[(1,2,3,4-tetrahydro-1(S)-naphthalenyl)amino]carbonyl]-3-quinolinepentanoic acid] and O=C(O)CCCCc1cc2cc(C(=O)N[C@@H]3CCCc4ccccc43)ccc2nc1-c1ccccc1 [Compound 1o, 2-phenyl-6-[[(1,2,3,4-tetrahydro-1(R)-naphthalenyl)amino]carbonyl]-3-quinolinepentanoic acid] fall in the same range of Ki: 2.1 to 20 nM for the first, 2.1 to 20 nM for the second.

O=C(O)CCCCc1cc2cc(C(=O)NC3Cc4ccccc4C3)ccc2nc1-c1ccccc1 [Compound 1Q, 6-[[(2,3-dihydro-1H-inden-2-yl)amino]carbonyl]-2-phenyl-3-quinolinepentanoic acid] and C[C@@H](NC(=O)c1ccc2nc(-c3ccccc3)c(CCCCC(=O)O)cc2c1)c1ccccc1 [Compound 1S, 2-phenyl-6-[[(l(R)-phenylethyl)amino]carbonyl]-3-quinolinepentanoic acid] fall in the same range of Ki: 2.1 to 20 nM for the first, 2.1 to 20 nM for the second.

First: O=C(O)CCCCc1cc2cc(C(=O)N3CCC(c4ccccc4)CC3)ccc2nc1-c1ccccc1 [Compound 1R, 2-phenyl-6-[(4-phenyl-1-piperidinyl)carbonyl]-3-quinolinepentanoic acid]
Second: O=C(O)CCCCc1cc2cc(C(=O)N3CC[C@@H](c4ccccc4)C3)ccc2nc1-c1ccccc1 [Compound 1i, 2-phenyl-6-[(3(S)-phenyl-1-pyrrolidinyl)carbonyl]-3-quinolinepentanoic acid]
The Ki of the first is lower: 0.1 to 2 nM for the first, 2.1 to 20 nM for the second. The first binds more tightly here.

First: C[C@H](NC(=O)c1ccc2nc(-c3ccccc3)c(CCCCC(=O)O)cc2c1)c1ccccc1 [Compound 1T, 2-phenyl-6-[[(l(S)-phenylethyl)amino]carbonyl]-3-quinolinepentanoic acid]
Second: CC(NC(=O)c1ccc2nc(-c3ccccc3)c(CCCCC(=O)O)cc2c1)c1ccncc1 (stereo not drawn) [Compound 1W, 2-phenyl-6-[[[1-(4-pyridinyl)ethyl]amino]carbonyl]-3-quinolinepentanoic acid]
The Ki of the first is lower: 2.1 to 20 nM for the first, 20.1 to 200 nM for the second. The first binds more tightly here.

First: CN(Cc1ccccc1)C(=O)c1ccc2nc(-c3ccccc3)c(CCCCC(=O)O)cc2c1 [Compound 1U, 6-[[methyl(phenylmethyl)amino]carbonyl]-2-phenyl-3-quinolinepentanoic acid]
Second: O=C(O)CCCCc1cc2cc(C(=O)OCc3ccccc3)ccc2nc1-c1ccccc1 [Compound 2D, 2-phenyl-6-[(phenylmethoxy)carbonyl]-3-quinolinepentanoic acid]
The Ki of the first is higher: 2.1 to 20 nM for the first, 0.1 to 2 nM for the second. The second binds more tightly here.

O=C(O)CCCCc1cc2cc(C(=O)NCc3ccc(C(F)(F)F)nc3)ccc2nc1-c1ccccc1 [Compound 1V, 2-phenyl-6-[[[[6-(trifluoromethyl)-3-pyridinyl]methyl]amino]carbonyl]-3-quinolinepentanoic acid] and O=C(O)CCCCc1cc2cc(C(=O)NCc3ccc(F)cc3)ccc2nc1-c1ccccc1 [Compound 2C, 6-[[[(4-fluorophenyl)methyl]amino]carbonyl]-2-phenyl-3-quinolinepentanoic acid] fall in the same range of Ki: 2.1 to 20 nM for the first, 2.1 to 20 nM for the second.

O=C(O)CCCCc1cc2cc(C(=O)NCc3cccnc3)ccc2nc1-c1ccccc1 [Compound 1X, 2-phenyl-6-[[(3-pyridinylmethyl)amino]carbonyl]-3-quinolinepentanoic acid] and O=C(O)CCCCc1cc2cc(C(=O)NCc3ccncc3)ccc2nc1-c1ccccc1 [Compound 1Y, 2-phenyl-6-[[(4-pyridinylmethyl)amino]carbonyl]-3-quinolinepentanoic acid] fall in the same range of Ki: 20.1 to 200 nM for the first, 20.1 to 200 nM for the second.

First: O=C(O)CCCCc1cc2cc(C(=O)NCCCN3CCCC3)ccc2nc1-c1ccccc1 [Compound 1Z, 2-phenyl-6-[[[3-(1-pyrrolidinyl)propyl]amino]carbonyl]-3-quinolinepentanoic acid]
Second: Cc1cccc(CNC(=O)c2ccc3nc(-c4ccccc4)c(CCCCC(=O)O)cc3c2)c1 [Compound 2A, 6-[[[(3-methylphenyl)methyl]amino]carbonyl]-2-phenyl-3-quinolinepentanoic acid]
The Ki of the first is higher: 201 to 700 nM for the first, 2.1 to 20 nM for the second. The second binds more tightly here.

O=C(O)CCCCc1cc2cc(C(=O)NCc3ccc(Cl)cc3)ccc2nc1-c1ccccc1 [Compound 2B, 6-[[[(4-chlorophenyl)methyl]amino]carbonyl]-2-phenyl-3-quinolinepentanoic acid] and C[C@@H](CNC(=O)c1ccc2nc(-c3ccc(F)cc3)c(CCCCC(=O)O)cc2c1)c1ccccc1 [Compound 5AB, (R)-5-(2-(4-fluorophenyl)-6-((2-phenylpropyl)carbamoyl)quinolin-3-yl)pentanoic acid] fall in the same range of Ki: 2.1 to 20 nM for the first, 2.1 to 20 nM for the second.

Compared with O=C(O)CCCCc1nc2cc(C(=O)NCc3ccc(OC(F)(F)F)cc3)ccc2cc1-c1ccccc1 [Compound 3, 5-(3-phenyl-7-(4-(trifluoromethoxy)benzylcarbamoyl)quinolin-2-yl)pentanoic acid], O=C(O)CCCCc1nc2cc(C(=O)NCc3cccc(Cl)c3)ccc2cc1-c1ccccc1 [Compound 4, 5-(7-(3-chlorobenzylcarbamoyl)-3-phenylquinolin-2-yl)pentanoic acid] is lower in Ki: 2.1 to 20 nM for the first, 0.1 to 2 nM for the second. The second binds more tightly here.

O=C(O)CCCCc1nc2cc(C(=O)N3CCC(c4ccccc4)CC3)ccc2cc1-c1ccccc1 [Compound 3E, 3-phenyl-7-[(4-phenyl-1-piperidinyl)carbonyl]-2-quinolinepentanoic acid] and O=C(O)CCCCc1nc2cc(C(=O)N3CC[C@@H](c4ccccc4)C3)ccc2cc1-c1ccccc1 [Compound 3H, 3-phenyl-7-[(3(S)-phenyl-1-pyrrolidinyl)carbonyl]-2-quinolinepentanoic acid] fall in the same range of Ki: 2.1 to 20 nM for the first, 2.1 to 20 nM for the second.

Compared with C[C@@H](NC(=O)c1ccc2cc(-c3ccccc3)c(CCCCC(=O)O)nc2c1)c1ccc(Cl)cc1 [Compound 3F, 7-[[[1(R)-(4-chlorophenyl)ethyl]amino]carbonyl]-3-phenyl-2-quinolinepentanoic acid], C[C@H](NC(=O)c1ccc2cc(-c3ccccc3)c(CCCCC(=O)O)nc2c1)c1ccc(Cl)cc1 [Compound 3G, 7-[[[1(S)-(4-chlorophenyl)ethyl]amino]carbonyl]-3-phenyl-2-quinolinepentanoic acid] is higher in Ki: 0.1 to 2 nM for the first, 2.1 to 20 nM for the second. The first binds more tightly here.

First: O=C(O)CCCCc1nc2cc(C(=O)N3CCC[C@@H](c4ccccc4)C3)ccc2cc1-c1ccccc1 [Compound 3J, 3-phenyl-7-[(3(S)-phenyl-1-piperidinyl)carbonyl]-2-quinolinepentanoic acid]
Second: O=C(O)CCCCc1nc2cc(C(=O)N3CCC[C@H](c4ccccc4)C3)ccc2cc1-c1ccccc1 [Compound 3K, 3-phenyl-7-[(3(R)-phenyl-1-piperidinyl)carbonyl]-2-quinolinepentanoic acid]
The Ki of the first is higher: 20.1 to 200 nM for the first, 2.1 to 20 nM for the second.

First: O=C(O)CCCCc1nc2cc(C(=O)N3CC(c4ccccc4)C3)ccc2cc1-c1ccccc1 [Compound 3L, 3-phenyl-7-[(3-phenyl-1-azetidinyl)carbonyl]-2-quinolinepentanoic acid]
Second: O=C(O)CCCCc1nc2cc(C(=O)N3CC[C@H](c4ccccc4)C3)ccc2cc1-c1ccccc1 [Compound 3i, 3-phenyl-7-[(3(R)-phenyl-1-pynolidinyl)carbonyl]-2-quinolinepentanoic acid]
The Ki of the first is lower: 0.1 to 2 nM for the first, 2.1 to 20 nM for the second. The first binds more tightly here.

First: C[C@@H](NC(=O)c1ccc2cc(-c3ccccc3)c(CCCCC(=O)O)nc2c1)c1ccc(F)cc1 [Compound 4E, (R)-5-(7-(1-(4-fluorophenyl)ethylcarbamoyl)-3-phenylquinolin-2-yl)pentanoic acid]
Second: C[C@@H](NC(=O)c1ccc2nc(-c3ccc(F)cc3)c(CCCCC(=O)O)cc2c1)c1ccc(Cl)cc1 [Compound 5, 6-[[[1(R)-(4-chlorophenyl)ethyl]amino]carbonyl]-2-(4-fluorophenyl)-3-quinolinepentanoic acid]
The Ki of the first is lower: 0.1 to 2 nM for the first, 2.1 to 20 nM for the second. The first binds more tightly here.

O=C(O)CCCCc1cc2cc(C(=O)NC(c3ccccc3)c3ccccc3)ccc2nc1-c1ccc(F)cc1 [Compound 5AA, 5-(6-(benzhydrylcarbamoyl)-2-(4-fluorophenyl)quinolin-3-yl)pentanoic acid] and C[C@H](CNC(=O)c1ccc2nc(-c3ccc(F)cc3)c(CCCCC(=O)O)cc2c1)c1ccccc1 [Compound 5AC, (S)-5-(2-(4-fluorophenyl)-6-((2-phenylpropyl)carbamoyl)quinolin-3-yl)pentanoic acid] fall in the same range of Ki: 2.1 to 20 nM for the first, 2.1 to 20 nM for the second.

Same assay, conditions: values in text

Compared with O=C(O)CCCCc1cc2cc(C(=O)N[C@@H]3CCc4ccccc43)ccc2nc1-c1ccccc1 [Compound 1M, 6-[[(2,3-dihydro-1H-inden-1(R)-yl)amino]carbonyl]-2-phenyl-3-quinolinepentanoic acid], O=C(O)CCCCc1cc2cc(C(=O)N3CCC(c4ccccc4)CC3)ccc2nc1-c1ccccc1 [Compound 1R, 2-phenyl-6-[(4-phenyl-1-piperidinyl)carbonyl]-3-quinolinepentanoic acid] is 2.1-fold lower in Ki: 3.8 nM for the first, 1.8 nM for the second. The second binds more tightly here.

Going from O=C(O)CCCCc1cc2cc(C(=O)NCc3cccnc3)ccc2nc1-c1ccccc1 [Compound 1X, 2-phenyl-6-[[(3-pyridinylmethyl)amino]carbonyl]-3-quinolinepentanoic acid] to O=C(O)CCCCc1cc2cc(C(=O)NCCCN3CCCC3)ccc2nc1-c1ccccc1 [Compound 1Z, 2-phenyl-6-[[[3-(1-pyrrolidinyl)propyl]amino]carbonyl]-3-quinolinepentanoic acid], the Ki rises from 28.9 nM to 570 nM (20-fold). The first binds more tightly here.

O=C(O)CCCCc1nc2cc(C(=O)N3CC[C@@H](c4ccccc4)C3)ccc2cc1-c1ccccc1 [Compound 3H, 3-phenyl-7-[(3(S)-phenyl-1-pyrrolidinyl)carbonyl]-2-quinolinepentanoic acid] was tested, and the Ki was 2.7 nM.
